Consider `CCOC(=O)C1=C(C)NC(C)=C(C(=O)OCC)C1c1csc2ccc(Br)cc12`, for which the melting point was 68 to 70 °C. Take `CC(=O)c1ccc(OCn2cc(Cl)cnc2=O)cc1`: the melting point turned out to be 182 °C. Regarding `CC(C)c1nc(COCc2ccccc2)n(Cc2ccccc2)c1Sc1cccc([N+](=O)[O-])c1`, the melting point is 152 to 155 °C. Turning to `C#C[C@@H](O)C1CCCCC1`, the melting point fell in the range of 56 to 58 °C. As for `O=C(O)COc1ccc(CC(Cc2ccccc2)NS(=O)(=O)c2ccc(Cl)cc2)cc1` (stereo unspecified), the figure is 150 to 151 °C; as for `CN1CCN(c2ncnc3oc(-c4ccc(N)nc4)c(-c4ccccc4)c23)CC1`, 229 to 231 °C; as for `CCCCc1nc2c(N)nc3ccccc3c2n1CCCCS(C)(=O)=O`, 164 to 165 °C.

`N#Cc1sccc1[N+](=O)[O-]`: the melting point was in the range of 87 to 88 °C. Compound `CCOC(=O)CC(=O)c1ccc(Br)cc1Cl` displayed a melting point of 34 °C. Under `COc1ccc2c(ccc3c4ccc(OC)cc4c(=O)n(-c4ccc(OCCN5CCCCC5)cc4)c23)c1` stands 176 °C; under `FC(F)C(F)(F)Oc1cccc(Nc2nccc(-c3cccc(OC(F)(F)F)c3)n2)c1`, 98 to 100 °C; under `CC(C)(C)Nc1c(NCc2ccncc2)c(=O)c1=O`, 271 to 272 °C. `COc1ccc(Nc2cncc(-c3cccc(NC(=O)c4ccccc4)c3)c2)cc1` had a melting point of 135 to 140 °C. Consider `COc1ccc2[nH]c(SCc3ncc(C)c(OC)c3C)nc2c1`, for which the melting point lay within 120 to 121 °C. As for `COc1cc(OC)c(-c2c[nH]c(C3CC3)n2)cc1C=CC(=O)c1ccc(S(N)(=O)=O)cc1`, the figure is 156 to 160 °C. As for `COc1ccc2c(=O)c(S(C)(=O)=O)cn(C)c2c1`, the figure is 212 to 214 °C; as for `CN(C(=O)OC(C)(C)C)C(S)=NC(=O)OC(C)(C)C`, 118 °C; as for `c1ccc2c(c1)CNc1c-2ccc2ccccc12`, 186 to 188 °C. As for `C=C[C@@H]1Oc2ccccc2[C@H]1CC(=O)O` (relative stereo), the figure is 79 to 81 °C; as for `CON1C(=O)CC2(CCN(C(=O)CCN3C=CCC(C(N)=O)=C3)CC2)C1=O`, 64 to 80 °C. Compound `O=C1SCc2c(Cl)c(Cl)c(Cl)c(Cl)c21` displayed a melting point of 181 to 183 °C. `Cc1cc2nc(C3(c4ccc(S(N)(=O)=O)cc4)C=C(C(F)(F)F)NN3)sc2cc1F` (stereo unspecified) came in with a melting point of 224 to 225 °C. As for `COc1cc(C(=O)N(C(C)C)C2CCCCC2)ccc1CN(C(=O)CCl)c1cccnc1O`, the figure is 127 to 129 °C; as for `CN1C(=O)CN=C(c2ccccc2Cl)c2cccn21`, 132 to 134 °C; as for `Oc1ccc2cc(COCC3CC3)ccc2c1`, 129 to 132 °C. In turn, `CN(C)CCC(=O)n1cc(-c2ccccc2)c2ccccc21` showed a melting point of 137 to 138 °C.

As to `CN1CCc2ccccc21`, the melting point was in the range of 88 to 90 °C. `CCCCCOc1ccc(-c2ccc(CC[C@H]3CC[C@H](CCC)CC3)c(F)c2F)cc1` displayed a melting point of 27 °C. For the compound `Cc1nnc(-c2ccc3occ(-c4ccc(C(F)(F)F)cc4)c3c2)o1`, the melting point was 190 to 191 °C. As for `Oc1cccc(Oc2nnc(Cc3ccncc3)c3ccccc23)c1`, the figure is 206 to 207 °C; as for `COc1nc(N)nc(Cl)c1C1=NCCN1`, 212 °C. Take `Cn1c(=O)c(-c2ccc(Cl)cc2Cl)cc2c3cc(-c4ncco4)ccc3n(C)c21`: the melting point was in the range of 232 to 233 °C. Compound `CC(=O)Nc1ccc2c(c1)OCCCO2` gave a melting point of 108 to 109 °C. With `COCC(=O)c1cnc2c(OC)cccc2c1Nc1ccccc1C`, the melting point is 122 to 123 °C.

For the compound `C=CCOc1cc(-n2c(=O)cc(C(F)(F)F)n(C)c2=O)c(F)cc1Br`, the melting point turned out to be 120 °C.

For the compound `CSc1cc(-c2nc3ccccc3[nH]2)no1`, the melting point lay within 179 to 181 °C.

For the origin of these results see a melting point compilation (Tetko et al.; mined from patent text by program, amines drawn as free bases though some values may be those of a salt).
